Test results reported in patent US12077503B2, “Substituted cyclic amides and their use as herbicides” (FMC CORPORATION, priority 2015, dated 2024).

Legend:
Type in all cases: in vivo
corn (Zea mays) [1] = assay: Test G Pre-Emergence Protocol; conditions: Zea mays, pre-emergence, 312 h, evaluated after 13 days; for plant injury at 15.625 g/ha: 15.625 g ai/ha; for plant injury at 15.625 g/ha / plant injury at 250 g/ha: read-out: Corn damage rating (100=total damage to plant; 0=no damage to plant); for plant injury at 62.5 g/ha: 62.5 g ai/ha, 100=total damage to plant, 0=no damage to plant, read-out: plant damage rating, Corn; for plant injury at 250 g/ha: 250 g ai/ha
How it was run: (§1)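 Spraying took place one day after sowing, at 15.625, 62.5 or 250 g/ha, using an acetone/water (50:50) spray solution containing 0.5% Tween 20. Plants were kept under glasshouse conditions (24/16 °C, 14 h light, 65% humidity, watered twice daily), and injury was rated 0–100 at day 13.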

[2] = test system: ivy-leaved morning glory (Ipomoea hederacea); assay: Test G Pre-Emergence Protocol; conditions: Ipomoea, pre-emergence, 312 h, evaluated after 13 days; for pest or weed control at 15.625 g/ha: 15.625 g ai/ha, read-out: Morning-glory, Ivy-leaved damage rating (100=total damage to plant; 0=no damage to plant); for pest or weed control at 62.5 g/ha: 62.5 g ai/ha, 100=total damage to plant, 0=no damage to plant, read-out: plant damage rating, Morningglory, Ivy-leaved; for pest or weed control at 250 g/ha: 250 g ai/ha, read-out: Morningglory, Ivy-leaved damage rating (100=total damage to plant; 0=no damage to plant)
How it was run: as §1

[3] = test system: barnyardgrass (Echinochloa crus-galli); assay: Test G Pre-Emergence Protocol; conditions: Echinochloa crus-galli, pre-emergence, 312 h, evaluated after 13 days; for pest or weed control at 15.625 g/ha: 15.625 g ai/ha, read-out: Barnyard grass damage rating (100=total damage to plant; 0=no damage to plant); for pest or weed control at 62.5 g/ha: 62.5 g ai/ha, 100=total damage to plant, 0=no damage to plant, read-out: plant damage rating, Barnyardgrass; for pest or weed control at 250 g/ha: 250 g ai/ha, read-out: Barnyardgrass damage rating (100=total damage to plant; 0=no damage to plant)
How it was run: as §1

[4] = test system: giant foxtail (Setaria faberi); assay: Test G Pre-Emergence Protocol; conditions: Setaria faberi, pre-emergence, 312 h, evaluated after 13 days; for pest or weed control at 15.625 g/ha: 15.625 g ai/ha; for pest or weed control at 15.625 g/ha / pest or weed control at 250 g/ha: read-out: Foxtail, Giant damage rating (100=total damage to plant; 0=no damage to plant); for pest or weed control at 62.5 g/ha: 62.5 g ai/ha, 100=total damage to plant, 0=no damage to plant, read-out: plant damage rating, Foxtail, Giant; for pest or weed control at 250 g/ha: 250 g ai/ha
How it was run: as §1

[5] = test system: redroot pigweed (Amaranthus retroflexus); assay: Test G Pre-Emergence Protocol; conditions: Amaranthus retroflexus, pre-emergence, 312 h, evaluated after 13 days; for pest or weed control at 15.625 g/ha: 15.625 g ai/ha; for pest or weed control at 15.625 g/ha / pest or weed control at 250 g/ha: read-out: Pigweed, Redroot damage rating (100=total damage to plant; 0=no damage to plant); for pest or weed control at 62.5 g/ha: 62.5 g ai/ha, 100=total damage to plant, 0=no damage to plant, read-out: plant damage rating, Pigweed, Redroot; for pest or weed control at 250 g/ha: 250 g ai/ha
How it was run: as §1

[6] = test system: velvetleaf (Abutilon theophrasti); assay: Test G Pre-Emergence Protocol; conditions: Abutilon theophrasti, pre-emergence, 312 h, evaluated after 13 days; for pest or weed control at 15.625 g/ha: 15.625 g ai/ha; for pest or weed control at 15.625 g/ha / pest or weed control at 250 g/ha: read-out: Velvetleaf damage rating (100=total damage to plant; 0=no damage to plant); for pest or weed control at 62.5 g/ha: 62.5 g ai/ha, 100=total damage to plant, 0=no damage to plant, read-out: plant damage rating, Velvetleaf; for pest or weed control at 250 g/ha: 250 g ai/ha
How it was run: as §1

corn (Zea mays) [7] = assay: Test G Post-Emergence Protocol; conditions: Zea mays, post-emergence, 312 h; for plant injury at 15.625 g/ha: 15.625 g ai/ha, evaluated after 13 days (100=total damage to plant; 0=no damage to plant), read-out: Corn damage rating; for plant injury at 62.5 g/ha: 62.5 g ai/ha, read-out: Corn damage rating (100=total damage to plant; 0=no damage to plant); for plant injury at 62.5 g/ha / plant injury at 250 g/ha: evaluated after 13 days; for plant injury at 250 g/ha: 250 g ai/ha, read-out: damage to plant, Corn (100=total damage to plant; 0=no damage to plant)
How it was run: (§2)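 Scores run 0 (no damage) to 100 (total damage) and were taken 13 days after spraying. Plants had been raised in pots for 8 days under glasshouse control (24/16 °C, 14 h photoperiod, 65% humidity) and then treated at 15.625, 62.5 or 250 g/ha.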

[8] = test system: ivy-leaved morning glory (Ipomoea hederacea); assay: Test G Post-Emergence Protocol; conditions: Ipomoea, post-emergence, 312 h; for pest or weed control at 15.625 g/ha: 15.625 g ai/ha, evaluated after 13 days (100=total damage to plant; 0=no damage to plant), read-out: Morningglory, Ivy-leaved damage rating; for pest or weed control at 62.5 g/ha: 62.5 g ai/ha, read-out: Morningglory, Ivy-leaved damage rating (100=total damage to plant; 0=no damage to plant); for pest or weed control at 62.5 g/ha / pest or weed control at 250 g/ha: evaluated after 13 days; for pest or weed control at 250 g/ha: 250 g ai/ha, read-out: damage to plant, Morningglory, Ivy-leaved (100=total damage to plant; 0=no damage to plant)
How it was run: as §2

[9] = test system: barnyardgrass (Echinochloa crus-galli); assay: Test G Post-Emergence Protocol; conditions: Echinochloa crus-galli, post-emergence, 312 h; for pest or weed control at 15.625 g/ha: 15.625 g ai/ha, evaluated after 13 days (100=total damage to plant; 0=no damage to plant), read-out: Barnyardgrass damage rating; for pest or weed control at 62.5 g/ha: 62.5 g ai/ha, read-out: Barnyardgrass damage rating (100=total damage to plant; 0=no damage to plant); for pest or weed control at 62.5 g/ha / pest or weed control at 250 g/ha: evaluated after 13 days; for pest or weed control at 250 g/ha: 250 g ai/ha, read-out: damage to plant, Barnyardgrass (100=total damage to plant; 0=no damage to plant)
How it was run: as §2

[10] = test system: giant foxtail (Setaria faberi); assay: Test G Post-Emergence Protocol; conditions: Setaria faberi, post-emergence, 312 h; for pest or weed control at 15.625 g/ha: 15.625 g ai/ha, evaluated after 13 days (100=total damage to plant; 0=no damage to plant), read-out: Foxtail, Giant damage rating; for pest or weed control at 62.5 g/ha: 62.5 g ai/ha, read-out: Foxtail, Giant damage rating (100=total damage to plant; 0=no damage to plant); for pest or weed control at 62.5 g/ha / pest or weed control at 250 g/ha: evaluated after 13 days; for pest or weed control at 250 g/ha: 250 g ai/ha, read-out: damage to plant, Foxtail, Giant (100=total damage to plant; 0=no damage to plant)
How it was run: as §2

[11] = test system: redroot pigweed (Amaranthus retroflexus); assay: Test G Post-Emergence Protocol; conditions: Amaranthus retroflexus, post-emergence, 312 h; for pest or weed control at 15.625 g/ha: 15.625 g ai/ha, evaluated after 13 days (100=total damage to plant; 0=no damage to plant), read-out: Pigweed, Redroot damage rating; for pest or weed control at 62.5 g/ha: 62.5 g ai/ha, read-out: Pigweed, Redroot damage rating (100=total damage to plant; 0=no damage to plant); for pest or weed control at 62.5 g/ha / pest or weed control at 250 g/ha: evaluated after 13 days; for pest or weed control at 250 g/ha: 250 g ai/ha, read-out: damage to plant, Pigweed, Redroot (100=total damage to plant; 0=no damage to plant)
How it was run: as §2

[12] = test system: velvetleaf (Abutilon theophrasti); assay: Test G Post-Emergence Protocol; conditions: Abutilon theophrasti, post-emergence, 312 h; for pest or weed control at 15.625 g/ha: 15.625 g ai/ha, evaluated after 13 days (100=total damage to plant; 0=no damage to plant), read-out: Velvetleaf damage rating; for pest or weed control at 62.5 g/ha: 62.5 g ai/ha, read-out: Velvetleaf damage rating (100=total damage to plant; 0=no damage to plant); for pest or weed control at 62.5 g/ha / pest or weed control at 250 g/ha: evaluated after 13 days; for pest or weed control at 250 g/ha: 250 g ai/ha, read-out: damage to plant, Velvetleaf (100=total damage to plant; 0=no damage to plant)
How it was run: as §2

## CN1C[C@H](c2ccc(C(F)(F)F)cc2)[C@@H](C(=O)Nc2ccc(F)c(F)c2)C1=O (racemic) [Compound 1412]
Corn (Zea mays) [1]
  plant injury at 15.625 g/ha: 0%
  plant injury at 62.5 g/ha: 10%
  plant injury at 250 g/ha: 10%
[2]
  pest or weed control at 15.625 g/ha: 0%
  pest or weed control at 62.5 g/ha: 0%
  pest or weed control at 250 g/ha: 0%
[3]
  pest or weed control at 15.625 g/ha: 0%
  pest or weed control at 62.5 g/ha: 30%
  pest or weed control at 250 g/ha: 60%
[4]
  pest or weed control at 15.625 g/ha: 10%
  pest or weed control at 62.5 g/ha: 50%
  pest or weed control at 250 g/ha: 80%
[5]
  pest or weed control at 15.625 g/ha: 20%
  pest or weed control at 62.5 g/ha: 20%
  pest or weed control at 250 g/ha: 10%
[6]
  pest or weed control at 15.625 g/ha: 0%
  pest or weed control at 62.5 g/ha: 0%
  pest or weed control at 250 g/ha: 10%
Corn (Zea mays) [7]
  plant injury at 15.625 g/ha: 20%
  plant injury at 62.5 g/ha: 10%
  plant injury at 250 g/ha: 10%
[8]
  pest or weed control at 15.625 g/ha: 0%
  pest or weed control at 62.5 g/ha: 0%
  pest or weed control at 250 g/ha: 20%
[9]
  pest or weed control at 15.625 g/ha: 0%
  pest or weed control at 62.5 g/ha: 50%
  pest or weed control at 250 g/ha: 60%
[10]
  pest or weed control at 15.625 g/ha: 0%
  pest or weed control at 62.5 g/ha: 60%
  pest or weed control at 250 g/ha: 70%
[11]
  pest or weed control at 15.625 g/ha: 30%
  pest or weed control at 62.5 g/ha: 40%
  pest or weed control at 250 g/ha: 40%
[12]
  pest or weed control at 15.625 g/ha: 0%
  pest or weed control at 62.5 g/ha: 40%
  pest or weed control at 250 g/ha: 40%

## CN1C[C@@H](c2ccc(C(F)(F)F)cc2)[C@H](C(=O)Nc2ccccc2C#N)C1=O (racemic) [Compound 1599]
Corn (Zea mays) [1]
  plant injury at 15.625 g/ha: 0%
  plant injury at 62.5 g/ha: 10%
  plant injury at 250 g/ha: 40%
[2]
  pest or weed control at 15.625 g/ha: 10%
  pest or weed control at 62.5 g/ha: 10%
  pest or weed control at 250 g/ha: 10%
[3]
  pest or weed control at 15.625 g/ha: 0%
  pest or weed control at 62.5 g/ha: 70%
  pest or weed control at 250 g/ha: 70%
[4]
  pest or weed control at 15.625 g/ha: 20%
  pest or weed control at 62.5 g/ha: 60%
  pest or weed control at 250 g/ha: 80%
[5]
  pest or weed control at 15.625 g/ha: 0%
  pest or weed control at 62.5 g/ha: 40%
  pest or weed control at 250 g/ha: 70%
[6]
  pest or weed control at 15.625 g/ha: 0%
  pest or weed control at 62.5 g/ha: 30%
  pest or weed control at 250 g/ha: 20%
Corn (Zea mays) [7]
  plant injury at 15.625 g/ha: 0%
  plant injury at 62.5 g/ha: 0%
  plant injury at 250 g/ha: 40%
[8]
  pest or weed control at 15.625 g/ha: 50%
  pest or weed control at 62.5 g/ha: 60%
  pest or weed control at 250 g/ha: 50%
[9]
  pest or weed control at 15.625 g/ha: 10%
  pest or weed control at 62.5 g/ha: 70%
  pest or weed control at 250 g/ha: 70%
[10]
  pest or weed control at 15.625 g/ha: 60%
  pest or weed control at 62.5 g/ha: 80%
  pest or weed control at 250 g/ha: 80%
[11]
  pest or weed control at 15.625 g/ha: 0%
  pest or weed control at 62.5 g/ha: 50%
  pest or weed control at 250 g/ha: 50%
[12]
  pest or weed control at 15.625 g/ha: 0%
  pest or weed control at 62.5 g/ha: 30%
  pest or weed control at 250 g/ha: 40%
